From publication PMC9866728, “Dosing Methods to Enable Cell-Based In Vitro Testing of Complex Substances: A Case Study with a PAH Mixture” (Toxics, 2022)
“And” between values parts separate entries of the source, which are not always exact repeats. Identical values can stand only once. Like-named read-outs stand apart in the source and are kept apart here.

Experiments:
[1] = Recovery over time from exposure to cell culture media without cells (GC-MS/MS); assay type: physicochemical
[2] = Table S1; ref PubChem; cited from earlier work
[3] = Loading kinetics of silicone micro-O-rings from methanol PAH solution (GC-MS/MS); assay type: physicochemical; settings: for K Value: loading rate constant, one-phase association (h^-1); for K Value / Plateau Value / Y0: 10 µg/mL PAH mix in methanol; for Plateau Value: one-phase association fit of nominal Csilicone (µg/mL per Eq 1); for Y0: one-phase association fit of nominal Csilicone, 0-24 h; for Half-time Value / Span Value / Tau Value: one-phase association fit, micro-O-ring absorption
[4] = O-ring loading rate constant, larger O-rings; ref Smith et al. 2010 [24]; cited from earlier work
[5] = bovine, 24 h
[6] = Smith et al. O-Rings; ref Smith et al. 2010 [24]; cited from earlier work
[7] = Protein binding: media-dissolved fraction (FMD) and unbound fraction (FUB) in cell culture media without cells (ultracentrifugation, GC-MS/MS)
[8] = MAF (400 ng/mL each PAH), one phase decay fit of nominal recovery
[9] = MAF (400 ng/mL each PAH), one phase decay fit of nominal recovery (text: ng/mL)
[10] = O-Rings (loaded in 10 µg/mL PAH solution), one phase association fit of nominal recovery
[11] = O-Rings, one phase association fit
[12] = O-Rings, one phase association fit (desorption into media)
[13] = Solvent Extract (DMSO, 15 ng/mL each PAH), one phase decay fit of nominal recovery
[14] = Solvent Extract (DMSO, 15 ng/mL each PAH), one phase decay fit of nominal recovery (text: ng/mL)
[15] = Solvent Extract, one phase decay fit

c1ccc2c(c1)Cc1ccccc1-2 [Fluorene]
Y0 [1, 8]: 397.4 | Plateau [1, 9]: 50.15 | K ([1]; MAF, one phase decay fit): 0.7944 | Span ([1]; MAF, one phase decay fit): 347.3 | Tau ([1]; MAF, one phase decay fit): 1.259 | Plateau [1, 10]: 2.925 | Y0 [1, 10]: -0.4812 | Half-time [1, 11]: 0.4551 | Span [1, 11]: 3.406 | Tau [1, 11]: 0.6566 | K [1, 12]: 1.523 | Y0 [1, 13]: 14.61 | Plateau [1, 14]: 3.728 | K [1, 15]: 0.435 | Span [1, 15]: 10.88 | Tau [1, 15]: 2.299 | LogKow (PubChem) [2]: 4.18 | K Value [3]: 26.7516 | Plateau Value [3]: 0.7821 | Y0 [3]: 0 | Half-time Value [3]: 0.02591 | Span Value [3]: 0.7821 | Tau Value [3]: 0.03738 | Smith et al. 2010 K Value [4]: 1.89 | ISTD Resp. Ratio (Raw Data for FMD) ([5]; 0.375 µg/mL): 0.7014 | ISTD Resp. Ratio (Raw Data for FMD) ([5]; 10 µg/mL): 0.2015

c1ccc2c(c1)ccc1ccccc12 [Phenanthrene]
Y0 [1, 8]: 398.5 | Plateau [1, 9]: 48.89 | K ([1]; MAF, one phase decay fit): 0.9181 | Span ([1]; MAF, one phase decay fit): 349.6 | Tau ([1]; MAF, one phase decay fit): 1.089 | Plateau [1, 10]: 0.3728 | Y0 [1, 10]: -0.1954 | Half-time [1, 11]: 0.1645 | Span [1, 11]: 0.5682 | Tau [1, 11]: 0.2373 | K [1, 12]: 4.214 | Y0 [1, 13]: 14.6 | Plateau [1, 14]: 2.716 | K [1, 15]: 0.502 | Span [1, 15]: 11.89 | Tau [1, 15]: 1.992 | K [6]: 1.32 | ISTD Resp. Ratio, stock ([7]; 0.375 ug/mL DMSO extract, 1 hr exposure block, stock reference samples STOCK_R1-R3, raw GC-MS/MS response ratio to ISTD): 7.517 and 6.997 and 7.303 | ISTD Resp. Ratio (Raw Data for FMD) ([7]; 0.375 ug/mL DMSO extract, 1 hr exposure, media-dissolved fraction, replicates DMSO_FMD_R1-R4, raw GC-MS/MS response ratio to ISTD): 0.8475 and 0.7152 and 0.8128 and 0.7589 | ISTD Resp. Ratio (Raw Data for FUB) ([7]; 0.375 ug/mL DMSO extract, 1 hr exposure, unbound fraction, replicates DMSO_FUB_R1-R4, raw GC-MS/MS response ratio to ISTD): 0.02919 and 0.03368 and 0.0397 and 0.002786 | ISTD Resp. Ratio, stock ([7]; 0.375 ug/mL DMSO extract, 24 hr exposure block, stock samples STOCK_R1-R3, GC-MS/MS area ratio to ISTD): 9.093 and 9.139 and 8.158 | ISTD Resp. Ratio (Raw Data for FMD) ([7]; 0.375 ug/mL DMSO extract, 24 hr exposure, media-dissolved fraction samples, replicates DMSO_FMD_R2-R4, GC-MS/MS area ratio to ISTD): 0.2846 and 0.2622 and 0.2363 | ISTD Resp. Ratio (Raw Data for FMD) ([7]; 0.375 ug/mL DMSO extract, 24 hr exposure, media-dissolved fraction, replicate DMSO_FMD_R1, raw GC-MS/MS response ratio to ISTD): 0.2681 | ISTD Resp. Ratio (Raw Data for FUB) ([7]; 0.375 ug/mL DMSO extract, 24 hr exposure, unbound fraction samples, replicates DMSO_FUB_R1-R4, GC-MS/MS area ratio to ISTD): 0.01396 and 0.01643 and 0.01239 and 0.00394 | ISTD Resp. Ratio (raw data for FMD) ([7]; 10 ug/mL MAF (MAF_1H_FMD), 1 hour exposure, replicates R1-R3): 58.1761 and 43.9105 and 63.6043 | ISTD Resp. Ratio (raw data for FUB) ([7]; 10 ug/mL MAF (MAF_1H_FUB), 1 hour exposure, replicates R1-R3): 0.06932 and 0.09392 and 0.08269 | ISTD Resp. Ratio, Raw Data for FMD (media-dissolved fraction) ([7]; 10 ug/mL MAF, 24 hour exposure, samples MAF_24H_FMD_R1-R3 (replicates), raw GC-MS/MS analyte/ISTD response ratio): 34.5977 and 34.7241 and 34.153 | ISTD Resp. Ratio, Raw Data for FUB (unbound fraction) ([7]; 10 ug/mL MAF, 24 hour exposure, samples MAF_24H_FUB_R1-R3 (replicates), raw GC-MS/MS analyte/ISTD response ratio): 0.04313 and 0.02976 and 0.1769 | ISTD Resp. Ratio (Raw Data for FMD) ([7]; 10 ug/mL micro-O-Rings, 1 hour exposure, media-dissolved fraction samples, replicates ORINGS_1H_FMD_R1-R3, GC-MS/MS area ratio to ISTD): 0.01581 and 0.07741 and 0.0739 | ISTD Resp. Ratio (Raw Data for FUB) ([7]; 10 ug/mL micro-O-Rings, 1 hour exposure, unbound fraction samples, replicates ORINGS_1H_FUB_R1-R3, GC-MS/MS area ratio to ISTD): 0.004514 and 0.0003336 and 0.01406 | ISTD Resp. Ratio (Raw Data for FMD) ([7]; 10 ug/mL micro-O-Rings, 24 hour exposure, media-dissolved fraction samples, replicate ORINGS_24H_FMD_R1, GC-MS/MS area ratio to ISTD): 0.01817 | ISTD Resp. Ratio (raw data for FMD) ([7]; O-rings (ORINGS_24H_FMD), 24 hour exposure, media without cells, GC-MS/MS analyte/ISTD response ratio, replicates R2-R3): 0.001128 and 0.05584 | ISTD Resp. Ratio (raw data for FUB) ([7]; O-rings (ORINGS_24H_FUB), 24 hour exposure, media without cells, GC-MS/MS analyte/ISTD response ratio, replicates R1-R3): 0.001509 and 0.006155 and 0.006123 | ISTD Resp. Ratio, stock ([7]; STOCK_10_R1-R3 (replicates) of the block 10 ug/mL MAF, 24 hr exposure, raw GC-MS/MS analyte/ISTD response ratio): 241.043 and 253.185 and 249.851 | ISTD Resp. Ratio (STOCK_10) ([7]; STOCK_10 reference samples of the 10 ug/mL MAF section, replicates R1-R3): 251.693 and 253.185 and 259.309 | ISTD Resp. Ratio (STOCK_10) ([7]; STOCK_10 reference samples of the O-rings section, replicates R1-R3): 105.268 and 100.389 and 100.167 | LogKow (PubChem) [2]: 4.46 | K Value [3]: 29.7306 | Plateau Value [3]: 0.2434 | Y0 [3]: 0 | Half-time Value [3]: 0.02331 | Span Value [3]: 0.2434 | Tau Value [3]: 0.03364 | Smith et al. 2010 K Value [4]: 1.66
